Laboratory results: US4818753A, “Synthesis and method of use for 2, 4 diaminoquinazoline” (SRI International, priority 1987, dated 1989)
Values after ≈ are worked out from the molar mass of the structure shown. Where two headings read alike, the source gives them in different places.

Assays:
Cryptococcus neoformans [1] = details: Hariri 1976, cited from earlier work
Cryptococcus neoformans [2] = details: Hariri 1976; cited from earlier work
Plasmodium species = details: Hariri 1976; cited from earlier work
Candida albicans (10231) = assay: Broth dilution assay, F1; assay type: cell-based
Protocol: (§1) Both broth dilution and agar dilution assays were used to assess the antifungal activity of the compounds of the invention. The cultures were maintained in Sabouraud dextrose broth (SDB) and diluted with […]. 2.5 l of SDB was prepared and distributed into sterile vessels as follows: 49 ml into 1 vessel, 27 ml into 3 vessels, 45 ml into 2 vessels.
(§2) Five mg/ml concentration of each compound was prepared using DMSO as the solvent; warming and sonication were necessary to dissolve each compound completely. The compounds were then diluted in SDB according to the following protocol:
(§3) 5. 1 ug/ml--5 ml (3)+45 ml SDB
(§4) The compound at each concentration in SDB was then dispensed into 6 tubes each containing 4 ml […]. Controls (without any compound) were also prepared to insure that the solvent itself was not fungicidal or fungistatic.
(§5) Cultures were grown in SDB for 24 h at 30° C. C. albicans and C. neoformans were diluted 1:10 in SDB before inoculation. Inoculation volume for yeasts was 2 drops of diluted cells per tube. The fungal cultures were homogenized before inoculation. The same volume was added, but without dilution. All tubes were incubated at room temperature on a rotating wheel. After 16 h of incubation at room temperature, the fungistatic assay was set up on agar plates. […] Yeasts were inoculated onto SDA (the corresponding agar) plates and fungi onto mycosel agar plates. These plates were then incubated at room temperature.

Candida albicans (14053) = assay: Broth dilution assay, F2; assay type: cell-based; details: for MIC: Table 1, F2, Sabouraud Dextrose Broth pH 5.5, read-out: Minimum Inhibitory Concentration (S, fungistatic); for MFC: Table 1, F2, Sabouraud Dextrose Broth pH 5.5, read-out: Minimum Lethal Concentration (C, fungicidal)
Protocol: as §1, §2, §3, §4, §5

[3] = test system: Cryptococcus neoformans (13690); assay: Broth dilution assay, F3; assay type: cell-based
Protocol: as §1, §2, §3, §4, §5

[4] = test system: Epidermophyton floccosum (15693); assay: Broth dilution assay, F4; assay type: cell-based; details: for MIC: Table 1, F4, Sabouraud Dextrose Broth pH 5.5, read-out: Minimum Inhibitory Concentration (S, fungistatic)
Protocol: as §1, §2, §3, §4, §5

[5] = test system: Trichophyton mentagrophytes (11481); assay: Broth dilution assay, F6; assay type: cell-based
Protocol: as §1, §2, §3, §4, §5

[6] = test system: Microsporum gypseum (14683); assay: Broth dilution assay, F12; assay type: cell-based; details: Nannizzia gypsea
Protocol: as §1, §2, §3, §4, §5

[7] = test system: Penicillium citrinum (9849); assay: Broth dilution assay, F19; assay type: cell-based; details: for MIC: Table 1, F19, Sabouraud Dextrose Broth pH 5.5, read-out: Minimum Inhibitory Concentration (S, fungistatic); for MFC: Table 1, F19, Sabouraud Dextrose Broth pH 5.5, read-out: Minimum Lethal Concentration (C, fungicidal)
Protocol: as §1, §2, §3, §4, §5

fungi = assay: Broth dilution assay, whole panel; assay type: cell-based; details: Tables 1 and 2
Protocol: as §1, §2, §3, §4
as §5, with “These plates were then incubated at room temperature.” left out

[8] = Table 1, F1, Sabouraud Dextrose Broth pH 5.5, read-out: Minimum Inhibitory Concentration (S, fungistatic)
[9] = Table 1, F1, Sabouraud Dextrose Broth pH 5.5, read-out: Minimum Lethal Concentration (C, fungicidal)
[10] = Table 1, F3, Sabouraud Dextrose Broth pH 5.5, read-out: Minimum Inhibitory Concentration (S, fungistatic)
[11] = Table 1, F3, Sabouraud Dextrose Broth pH 5.5, read-out: Minimum Lethal Concentration (C, fungicidal)
[12] = Table 1, F4, Sabouraud Dextrose Broth pH 5.5, read-out: Minimum Lethal Concentration (C, fungicidal)
[13] = Table 1, F6, Sabouraud Dextrose Broth pH 5.5, read-out: Minimum Inhibitory Concentration (S, fungistatic)
[14] = Table 1, F6, Sabouraud Dextrose Broth pH 5.5, read-out: Minimum Lethal Concentration (C, fungicidal)
[15] = Table 1, Sabouraud Dextrose Broth pH 5.5, read-out: Minimum Inhibitory Concentration (S, fungistatic)
[16] = Table 1, Sabouraud Dextrose Broth pH 5.5, read-out: Minimum Lethal Concentration (C, fungicidal)

MIC (Candida albicans (10231); [8]) [µg/mL] | MIC (Candida albicans (14053)) [µg/mL] | MIC [3, 10] [µg/mL] | MIC [4] [µg/mL] | MIC [5, 13] [µg/mL] | MIC [6, 15] [µg/mL] | MIC [7] [µg/mL] | Structure (SMILES) | MFC (Candida albicans (10231); [9]) [µg/mL] | MFC (Candida albicans (14053)) [µg/mL] | MFC [3, 11] [µg/mL] | MFC [4, 12] [µg/mL] | MFC [5, 14] [µg/mL] | MFC [6, 16] [µg/mL] | MFC [7] [µg/mL] | also measured
 |  |  |  |  |  |  | Nc1nc(N)c2cc(NC(=O)Cc3ccc(Cl)c(Cl)c3)ccc2n1 [2,4-diamino-6-(2-(3,4-dichlorophenyl)acetamido)quinazoline] |  |  |  |  |  |  |  | minimum inhibitory concentration (MIC) (Cryptococcus neoformans [1]; C. neoformans): 6 to 8 µg/mL; in vitro activity (Cryptococcus neoformans [1]; in vitro): active in vitro and in vivo; in vivo activity (Cryptococcus neoformans [2]): active in vitro and in vivo; activity against Plasmodium (Plasmodium species): no activity
100 (≈ 434 µM) | 100 (≈ 434 µM) | 30 (≈ 130 µM) | 10 (≈ 43.4 µM) | > 30 | 30 (≈ 130 µM) | 100 (≈ 434 µM) | CCCCc1ccc2nc(N)nc(N)c2c1C [--CH2 (CH2)2 CH3] | > 100 | 100 (≈ 434 µM) | 30 (≈ 130 µM) | 30 (≈ 130 µM) | > 30 | > 30 | > 100 | 
100 (≈ 409 µM) | 100 (≈ 409 µM) | 10 (≈ 40.9 µM) | 10 (≈ 40.9 µM) | 30 (≈ 123 µM) | 30 (≈ 123 µM) | 100 (≈ 409 µM) | CCCCCc1ccc2nc(N)nc(N)c2c1C [--CH2 (CH2)3 CH 3] | 100 (≈ 409 µM) | 100 (≈ 409 µM) | 30 (≈ 123 µM) | 30 (≈ 123 µM) | > 30 | > 30 | 100 (≈ 409 µM) | 
> 100 | > 100 | > 100 | 30 (≈ 139 µM) | > 30 | > 30 | > 100 | CCCc1ccc2nc(N)nc(N)c2c1C [--CH2 CH2 CH3] | > 100 | > 100 | > 100 | > 30 | > 30 | > 30 | > 100 | 
100 (≈ 409 µM) | 100 (≈ 409 µM) | 10 (≈ 40.9 µM) | 10 (≈ 40.9 µM) | > 30 | 30 (≈ 123 µM) | 100 (≈ 409 µM) | Cc1c(CCC(C)C)ccc2nc(N)nc(N)c12 [--CH2 CH2 CH(CH3)2] | 100 (≈ 409 µM) | 100 (≈ 409 µM) | 30 (≈ 123 µM) | 10 (≈ 40.9 µM) | > 30 | > 30 | > 100 | 
> 100 | > 100 | > 100 | > 30 | > 30 | > 30 | > 100 | Cc1cccc2nc(N)nc(N)c12 [H] | > 100 | > 100 | > 100 | > 30 | > 30 | > 30 | > 100 | 

Structure (SMILES) | MIC (Candida albicans (10231); [8]) [µg/mL] | MIC (Candida albicans (14053)) [µg/mL] | MIC [3, 10] [µg/mL] | MIC [4] [µg/mL] | MIC [5, 13] [µg/mL] | MIC [6, 15] [µg/mL] | MIC [7] [µg/mL] | MFC (Candida albicans (10231); [9]) [µg/mL] | MFC (Candida albicans (14053)) [µg/mL] | MFC [3, 11] [µg/mL] | MFC [4, 12] [µg/mL] | MFC [5, 14] [µg/mL] | MFC [6, 16] [µg/mL] | MFC [7] [µg/mL] | also measured
CCCCCCc1ccc2nc(N)nc(N)c2c1C [--CH2 (CH2)4 CH3, 2,4-Diamino-5-methyl-6-n-hexylquinazoline] | 30 (≈ 116 µM) | 30 (≈ 116 µM) | 3 (≈ 11.6 µM) | 3 (≈ 11.6 µM) | 30 (≈ 116 µM) | 10 (≈ 38.7 µM) | 100 (≈ 387 µM) | 30 (≈ 116 µM) | 30 (≈ 116 µM) | 10 (≈ 38.7 µM) |  | > 30 | 30 (≈ 116 µM) | 100 (≈ 387 µM) | MFC (Candida albicans (10231); Table 2, F1, Sabouraud Dextrose Broth pH 5.5, read-out: C Fungicidal): > 100 µg/mL; MIC (Candida albicans (10231); Table 2, F1, Sabouraud Dextrose Broth pH 5.5, read-out: S Fungistatic): 30 µg/mL (≈ 116 µM); MFC ([3]; Table 2, F3, Sabouraud Dextrose Broth pH 5.5, read-out: C Fungicidal): 3 µg/mL (≈ 11.6 µM); MIC ([3]; Table 2, F3, Sabouraud Dextrose Broth pH 5.5, read-out: S Fungistatic): 3 µg/mL (≈ 11.6 µM); MFC ([4]; Table 2, F4, Sabouraud Dextrose Broth pH 5.5, read-out: C Fungicidal): 30 µg/mL (≈ 116 µM); MFC ([5]; Table 2, F6, Sabouraud Dextrose Broth pH 5.5, read-out: C Fungicidal): 30 µg/mL (≈ 116 µM); MIC ([5]; Table 2, F6, Sabouraud Dextrose Broth pH 5.5, read-out: S Fungistatic): 30 µg/mL (≈ 116 µM); MFC ([6]; Table 2, Sabouraud Dextrose Broth pH 5.5, read-out: C Fungicidal): 100 µg/mL (≈ 387 µM); MIC ([6]; Table 2, Sabouraud Dextrose Broth pH 5.5, read-out: S Fungistatic): 30 µg/mL (≈ 116 µM); fungicidal and fungistatic activity in words (fungi): best fungicidal and fungistatic activity
